± gives the expanded uncertainty stated by the source.
Columns and labels:
[1] = molar heat capacity at constant pressure; settings: 101.33 kPa, Vacuum adiabatic calorimetry
[2] = for molar entropy: 101.33 kPa, Vacuum adiabatic calorimetry; for Triple point temperature: Adiabatic calorimetry
[3] = Molar enthalpy of transition or fusion; settings: Adiabatic calorimetry

CCCCn1cc[n+](C)c1.O=S(=O)([O-])C(F)(F)F [1-butyl-3-methylimidazolium trifluoromethanesulfonate]
Settings | molar entropy, [2] [J/K/mol] | molar heat capacity at constant pressure, [1] [J/K/mol]
5 K, Crystal 2 | 0.4944 ± 0.023 | 1.486 ± 0.031
10 K, Crystal 2 | 3.77 ± 0.06 | 10.2 ± 0.1
15 K, Crystal 2 | 10.39 ± 0.12 | 23.78 ± 0.18
20 K, Crystal 2 | 19.26 ± 0.18 | 38.56 ± 0.23
25 K, Crystal 2 | 29.42 ± 0.22 | 52.98 ± 0.25
30 K, Crystal 2 | 40.29 ± 0.19 | 66.38 ± 0.18
35 K, Crystal 2 | 51.44 ± 0.22 | 78.37 ± 0.2
40 K, Crystal 2 | 62.61 ± 0.25 | 88.95 ± 0.22
45 K, Crystal 2 | 73.65 ± 0.28 | 98.67 ± 0.24
50 K, Crystal 2 | 84.51 ± 0.32 | 107.5 ± 0.3
55 K, Crystal 2 | 95.14 ± 0.35 | 115.5 ± 0.3
60 K, Crystal 2 | 105.5 ± 0.4 | 123 ± 0.3
65 K, Crystal 2 | 115.6 ± 0.4 | 130 ± 0.3
70 K, Crystal 2 | 125.5 ± 0.4 | 136.6 ± 0.3
80 K, Crystal 2 | 144.6 ± 0.5 | 148.9 ± 0.3
90 K, Crystal 2 | 162.8 ± 0.5 | 160 ± 0.4
100 K, Crystal 2 | 180.2 ± 0.6 | 170.5 ± 0.4
110 K, Crystal 2 | 196.9 ± 0.6 | 180.5 ± 0.4
120 K, Crystal 1 | – | 192.4 ± 0.4
120 K, Crystal 2 | – | 192.4 ± 0.4
130 K, Crystal 1 | 228.7 ± 0.6 | 198.6 ± 0.4
140 K, Crystal 1 | 243.7 ± 0.7 | 206.9 ± 0.4
150 K, Crystal 1 | 258.3 ± 0.7 | 216.1 ± 0.4
160 K, Crystal 1 | 272.5 ± 0.7 | 225.6 ± 0.4
170 K, Crystal 1 | 286.5 ± 0.7 | 235.5 ± 0.4
180 K, Crystal 1 | 300.3 ± 0.8 | 245.9 ± 0.4
190 K, Crystal 1 | 313.8 ± 0.8 | 256.7 ± 0.5
200 K, Crystal 1 | 327.3 ± 0.8 | 267.8 ± 0.5
210 K, Crystal 1 | 340.6 ± 0.8 | 279.3 ± 0.5
220 K, Crystal 1 | 353.9 ± 0.8 | 290.9 ± 0.5
230 K, Crystal 1 | 367.1 ± 0.9 | 302.8 ± 0.5
240 K, Crystal 1 | 380.2 ± 0.9 | 314.9 ± 0.5
250 K, Crystal 1 | 393.3 ± 0.9 | 327.1 ± 0.5
260 K, Crystal 1 | 406.4 ± 0.9 | 339.4 ± 0.5
270 K, Crystal 1 | 419.4 ± 0.9 | 351.9 ± 0.6
280 K, Crystal 1 | 432.5 ± 1 | 364.5 ± 0.6
290 K, Crystal 1 | 445.5 ± 1 | 377.3 ± 0.6
290.98 K, Crystal 1 | 446.8 ± 1 | 378.5 ± 0.6
290.98 K, Liquid | 513.6 ± 1.1 | 423.9 ± 0.6
298.15 K, Liquid | 523.9 ± 1.1 | 427.7 ± 0.6
300 K, Liquid | 526.6 ± 1.1 | 428.6 ± 0.6
310 K, Liquid | 540.7 ± 1.1 | 433.9 ± 0.6
320 K, Liquid | 554.6 ± 1.1 | 439.2 ± 0.6
330 K, Liquid | 568.2 ± 1.2 | 444.6 ± 0.6
340 K, Liquid | 581.5 ± 1.2 | 450 ± 0.7
350 K, Liquid | 594.7 ± 1.2 | 455.4 ± 0.7
360 K, Liquid | 607.6 ± 1.2 | 460.9 ± 0.7
370 K, Liquid | 620.3 ± 1.2 | 466.4 ± 0.7

Settings | Molar enthalpy of transition or fusion, [3] [kcal/mol] | Triple point temperature, [2] [K]
Crystal 1 | 4.644 ± 0.00956 | 290.98 ± 0.04
Crystal 2 | 0.00311 ± 0.000239 | 120 ± 0.1

— the NIST ThermoML archive (doi:10.1016/j.tca.2010.08.002)
